Patent US12492210B2, “Tricyclic compounds and their use” (HUTCHISON MEDIPHARMA LIMITED, priority 2019, dated 2025)

How the values were obtained:
MAPK1(ERK2) enzyme = target: T1, MAPK1(ERK2) enzyme (Homo sapiens, UniProt P28482); assay: Z-Lyte Kinase Assay of ERK2; assay type: biochemical; conditions: read-out: Example 18 IC50
T1 construct: purchased Invitrogen PV3313
Experimental: Example 18: Z-Lyte Kinase Assay of ERK2
1. Materials and Reagents:
2. Reaction Steps: Plate Map
3. Solution Preparation • 1) 1.33× Kinase Buffer: Dilute 5× Kinase Buffer to 1.33× with ddH2O • 2) 4× Test Compounds: Serially dilute the test compounds to 4 folds of the concentrations desired, keeping the DMSO concentration at 8%. The final concentrations are 1, 0.33, 0.11, 0.037, 0.012, 0.004, 0.0014, 0.00046 μM, and the final concentration of DMSO is 2%. • 3) Kinase/Peptide Mixture (P/K solution): Prepare Kinase/Peptide Mixture by diluting the kinase to 0.6 μg/ml and the Z-LYTE™ Ser/Thr3 peptide to 4 μM in 1.33× Kinase Buffer. Mix gently by pipetting. • 4) Phospho-peptide Solution (PP solution): Add 0.4 μl of Z-LYTE™ Ser/Thr3 Phospho-peptide to 99.6 μl of 1.33× Kinase Buffer. • 5) ATP Solution: Prepare ATP Solution by diluting the 10 mM of ATP in 1.33× Kinase Buffer to 100 μM. • 6) Development Solution: Dilute Development Reagent A with Development Buffer as 1:1024. 4. Reaction • 1) Kinase reaction (10 μl of Volume) • a. In a 384-well plate, add 2.5 μl of 4× test Cpds to each well except C1, C2, C3 wells Add 2.5 μl of 8% DMSO to C1, C2, C3 wells • b. Put the plate on ice • c. Add 5 μl of P/K mixture to each test Cpd wells and C1, C2 wells • d. Add 5 μl of PP Solution to C3 well • e. Add 2.5 μl of 1.33× kinase buffer to C1 and C3 wells • f. Add 2.5 μl of 4×ATP Solution to each test Cpd wells and C2 well, respectively. Shake the plate for 30 Sec and centrifuge (1500 rpm, 1 min) • g. Seal the plate to protect from the light and incubate the plate for 1 hour at RT (25-30° C.) • 2) Development reaction • a. Add 5 μl of the Development solution to all wells • b. Shake the plate for 30 sec and centrifuge (1500 rpm, 1 min) • c. Seal the plate to protect from the light and incubate the plate for 1 hour at RT (25-30° C.) • 3) Stop and read • a. Add 5 μl of the Stop reagent to all wells • b. Shake the plate for 30 sec and centrifuge (1500 rpm, 1 min) • c. Measure the value of coumarin (Ex400 nm, Em445 nm) and fluorescein (Ex400 nm, Em520 nm), respectively. 5. Data Analysis Emission Ratio(ER)=Coumarin Emission (445 nm)/Fluorescein Emission (520 nm) % Phosphorylation=1−[ER×C3520nm−C3445nm]/[(C1445nm−C3445nm)+ER×(C3520nm−C1520nm)] Inhibition rate (IR)=1−% Photest Cpd% PhoC2 6. IC50 Value: determine IC50 with add-in software for Microsoft Excel, XLfit™ (version 2.0) from ID Business Solutions (Guildford, UK)

[1] = test system: p-RSK (Thr359) in colo205 cells; assay: p-RSK (Thr359) Acumen Assay in Colo205; assay type: cell-based; conditions: Homo sapiens, COLO 205, 1 hour compound incubation, read-out: Example 19 IC50
Experimental: Example 19: p-RSK (Thr359) Acumen Assay in Colo205
• Phospho-p90RSK (Thr359) (D1E9) Rabbit mAb: cell signal, #8753 • Alexa Fluor® 488 donkey anti-rabbit IgG: invitrogen, #A-21206 • Propidium Iodide: Sigma, #p4170 • 4% Paraformaldehyde: SCRC, #DF021 • 10% Triton X-100: PIERCE, #28314 • 96-well plate (black with clear bottom): BD, #354640 • Acumen® eX3 (A Multilaser Microplate Cytometer For Enhanced High Content Screening): TTP LabTech 3. Acumen Assay Protocol • Seed 4000 cells in 100 μl 10% FBS/well into 96-well plate, incubate at 37° C., 5% CO2, overnight. • Dilute the compound to 3, 1, 0.33, 0.11, 0.037, 0.012, 0.004, 0.001 μM, keeping the DMSO concentration at 5%. Add 10 μl of diluted compound per well and incubate at 37° C., 5% CO2 for 1 hour. • Add 100 μl of 4% pre-warmed Paraformaldehyde (2% final), and incubate for 45 min at room temperature. • Remove paraformaldehyde solutions. Add 100 μl of ice-cold 0.1% Triton to fixed cells at room temperature for 30 min. • Wash twice with 150 μl PBS and incubate with 100 μl blocking buffer (1% BSA, in PBS) for 2˜3 hours at room temperature, seal the plate. • Wash once with PBS and incubate with 35 μl p-RSK (Thr359) (1:1000 dilution) overnight at 4° C. Seal the plate. • Wash twice with PBS and incubate for 1.5 hours at room temperature with 35 μl of Alexa Fluor® 488 donkey anti-rabbit IgG at a 1:1,000 dilution in antibody dilution buffer (0.1% BSA, in PBS). Cover plate in foil to keep out of light. • Wash twice with 150 μl PBS. Add 35 μl of 1.5 μM Propidium Iodide stock to each well to determine cell number, seal the plate. • Incubate at room temperature for 30 min. Load the plate into the Acumen Explorer and scan with the appropriate instrument settings. 4. Data Analysis
[formula] Note: • Percentagecompound well represents the positive percentage of cells treated by compound. • Percentagemin well represents the positive percentage of cells treated with 3 uM GDC0994. • Percentagemax well represents the positive percentage of cells without compounds treatment. 5. IC50 Value: determine IC50 with add-in software for Microsoft Excel, XLfit™ (version 2.0) from ID Business Solutions (Guildford, UK)

T1 sequence (P28482 whole entry): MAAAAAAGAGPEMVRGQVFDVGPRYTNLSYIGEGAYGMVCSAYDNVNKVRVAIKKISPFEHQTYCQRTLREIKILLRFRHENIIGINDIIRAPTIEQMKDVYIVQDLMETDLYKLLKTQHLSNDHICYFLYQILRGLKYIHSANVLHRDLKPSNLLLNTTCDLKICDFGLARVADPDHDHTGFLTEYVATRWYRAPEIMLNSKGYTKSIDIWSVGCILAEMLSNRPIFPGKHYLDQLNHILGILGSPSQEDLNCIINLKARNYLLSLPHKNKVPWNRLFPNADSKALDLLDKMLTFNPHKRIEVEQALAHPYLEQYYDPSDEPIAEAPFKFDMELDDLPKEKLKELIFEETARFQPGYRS

Compound	IC50 (MAPK1(ERK2) enzyme) [nM]	IC50 [1] [nM]
C[C@H]1Cn2cc(-c3ccnc(Nc4ccnn4C)n3)cc2-c2nnc(C(F)(F)c3ccccc3F)n21 [Compound 71]	≤ 5	≤ 100
Cc1cnc(Nc2ccnn2C)cc1-c1cc2n(c1)CC(C)(F)Cn1c-2nnc1C(F)(F)C(F)F (centres unmarked) [Compound 72]	5 to 10	≤ 100
Cn1nccc1Nc1cc(-c2cc3n(c2)CCCn2c(Cn4cc(Cl)cn4)nnc2-3)c(Cl)cn1 [Compound 73]	≤ 5	> 100
Cn1nccc1Nc1cc(-c2cc3n(c2)CC(F)(F)Cn2c-3nnc2C2(C#N)CCC2)c(Cl)cn1 [Compound 74]	≤ 5	≤ 100
Cc1cnc(Nc2ccnn2C)cc1-c1cc2n(c1)C[C@H](F)Cn1c-2nnc1C(F)(F)C(F)(F)F [Compound 75]	≤ 5	> 100
Cc1cnc(Nc2ccnn2C)cc1-c1cc2n(c1)C[C@H](CF)n1c-2nnc1C(F)(F)C(F)(F)F [Compound 76]	≤ 5	> 100
Cc1cnc(Nc2ccnn2C)cc1-c1cc2n(c1)C(C)CCn1c-2nnc1C1(C(F)(F)F)CCC1 (centres unmarked) [Compound 77]	≤ 5	≤ 100
Cc1cnc(Nc2ccnn2C)cc1-c1cc2n(c1)CC(F)(F)Cn1c-2nnc1C(F)(F)C(F)F [Compound 78]	≤ 5	≤ 100
Cn1nccc1Nc1cc(-c2cc3n(c2)C[C@H](CF)n2c-3nnc2C(F)(F)C(F)F)c(Cl)cn1 [Compound 79]	≤ 5	≤ 100
Cn1nccc1Nc1cc(-c2cc3n(c2)C[C@H](F)Cn2c-3nnc2C(F)(F)C(F)F)c(Cl)cn1 [Compound 80]	≤ 5	≤ 100
Cn1nccc1Nc1cc(-c2cc3n(c2)CCCn2c-3nnc2C2(C(F)F)CCCC2)c(Cl)cn1 [Compound 81]	≤ 5	≤ 100
Cc1cnc(Nc2ccnn2C)cc1-c1cc2n(c1)C[C@H](CF)n1c-2nnc1C1(C(F)(F)F)CCC1 [Compound 82]	≤ 5	≤ 100
Cc1cnc(Nc2ccnn2C)cc1-c1cc2n(c1)C[C@H](C)n1c-2nnc1C(F)(F)c1ccccc1F [Compound 83]	> 10	≤ 100
Cc1cnc(Nc2ccnn2C)cc1-c1cc2n(c1)CC1(CC1)Cn1c-2nnc1C(F)(F)C(F)(F)F [Compound 84]	5 to 10	> 100
Cn1nccc1Nc1cc(-c2cc3n(c2)C[C@H](F)Cn2c-3nnc2C2(C(F)(F)F)CCC2)c(F)cn1 [Compound 85]	≤ 5	≤ 100
Cc1cnc(Nc2ccnn2C)cc1-c1cc2n(c1)C[C@H](CF)n1c-2nnc1C(F)(F)c1ccccc1 [Compound 86]	5 to 10	≤ 100
Cc1cnc(Nc2ccnn2C)cc1-c1cc2n(c1)CC(F)(F)Cn1c-2nnc1C1(C(F)(F)F)CC1 [Compound 87]	≤ 5	≤ 100
Cc1cnc(Nc2ccnn2C)nc1-c1cc2n(c1)C[C@H](C)n1c-2nnc1C(F)(F)c1ccccc1F [Compound 88]	≤ 5	≤ 100
Cc1cnc(Nc2ccnn2C)nc1-c1cc2n(c1)C[C@H](C)n1c-2nnc1C(F)(F)c1cccc(F)c1 [Compound 89]	≤ 5	≤ 100

Compound	IC50 (MAPK1(ERK2) enzyme) [nM]	IC50 [1] [nM]
Cc1cnc(Nc2ccnn2C)cc1-c1cc2n(c1)CCn1c-2nnc1C(F)(F)c1ccccc1Cl [Compound 90]	5 to 10	≤ 100
C[C@H]1Cn2cc(-c3ccnc(Nc4ccnn4C)c3)cc2-c2nnc(C(F)(F)c3ccccc3Cl)n21 [Compound 91]	5 to 10	≤ 100
Cn1nccc1Nc1cc(-c2cc3n(c2)C[C@H](CF)n2c(Cc4ccccc4F)nnc2-3)c(Cl)cn1 [Compound 92]	5 to 10	≤ 100
Cn1nccc1Nc1cc(-c2cc3n(c2)CC2(CC2)Cn2c-3nnc2C(F)(F)C(F)F)c(Cl)cn1 [Compound 93]	5 to 10	≤ 100
Cc1cnc(Nc2ccnn2C)nc1-c1cc2n(c1)CCn1c-2nnc1C(F)(F)c1ccccc1Cl [Compound 94]	≤ 5	≤ 100
C[C@H]1Cn2cc(-c3ccnc(Nc4ccnn4C)n3)cc2-c2nnc(C(F)(F)c3ccccc3Cl)n21 [Compound 95]	5 to 10	≤ 100
Cn1nccc1Nc1cc(-c2cc3n(c2)C[C@H](CF)n2c-3nnc2C(F)(F)c2ccccc2F)ccn1 [Compound 96]	5 to 10	≤ 100
C[C@H]1Cn2cc(-c3nc(Nc4ccnn4C)ncc3F)cc2-c2nnc(C(F)(F)c3ccccc3F)n21 [Compound 97]	5 to 10	≤ 100
Cn1nccc1Nc1ncc(F)c(-c2cc3n(c2)C[C@H](CF)n2c-3nnc2C(F)(F)c2ccccc2)n1 [Compound 98]	≤ 5	≤ 100
Cc1cc(C(F)(F)c2nnc3n2[C@@H](CF)Cn2cc(-c4cc(Nc5ccnn5C)ncc4C)cc2-3)on1 [Compound 99]	≤ 5	> 100
Cn1nccc1Nc1nccc(-c2cc3n(c2)C[C@H](CF)n2c-3nnc2C(F)(F)c2ccccc2F)n1 [Compound 100]	≤ 5	≤ 100
Cc1cnc(Nc2ccnn2C)cc1-c1cc2n(c1)C[C@H](CF)n1c-2nnc1C(F)(F)c1nonc1C [Compound 101]	≤ 5	≤ 100
Cc1cnc(Nc2ccnn2C)nc1-c1cc2n(c1)C[C@H](C)n1c-2nnc1C(F)(F)n1cc(Cl)cn1 [Compound 102]	≤ 5	≤ 100
Cc1nonc1C(F)(F)c1nnc2n1[C@@H](C)Cn1cc(-c3cc(Nc4ccnn4C)ncc3Cl)cc1-2 [Compound 103]	5 to 10	≤ 100
Cc1cnc(Nc2ccnn2C)cc1-c1cc2n(c1)C[C@H](CF)n1c-2nnc1C(F)(F)n1ccc(F)n1 [Compound 104]	≤ 5	≤ 100
C[C@H]1CCn2cc(-c3cc(Nc4ccnn4C)ncc3Cl)cc2-c2nnc(C3(C(C)(F)F)CCC3)n21 [Compound 105]	5 to 10	≤ 100
Cn1nccc1Nc1cc(-c2cc3n(c2)CC(F)(F)Cn2c(Cn4cc(F)cn4)nnc2-3)c(Cl)cn1 [Compound 106]	≤ 5	≤ 100
Cn1nccc1Nc1cc(-c2cc3n(c2)CC(F)(F)Cn2c(COC(F)(F)F)nnc2-3)c(Cl)cn1 [Compound 107]	≤ 5	> 100
